Measurements taken from PubChem BioAssay AID248 (DTP/NCI, 2004).
Values joined by “and” are separate entries in the source; they are usually repeats but may differ in a detail not shown here. Equal values may be shown once. Toxic doses and inconclusive results are not listed. No stated cut-off is given here; in the data, active means T/C of 150% or more; inactive means T/C below 125%.

Tested on: L1210 leukemia ip in BDF1 mice, survival T/C
Test: NCI In Vivo Anticancer Drug Screen. Data for tumor model L1210 Leukemia (intraperitoneal) in B6D2F1 (BDF1) mice
Details: endpoint: mean survival time, vehicle: water, higher = longer survival
In short: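 Transplanted-tumor mice were given test agent; controls received vehicle only. Survival readings from the two groups were divided (treated over control).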

Measured: T/C

O=C(NO)c1ccncc1
inactive: dose: 6.25 mg/kg/injection, schedule: Q03HX008 (ip) 96 % of control | dose: 12.5 mg/kg/injection, schedule: Q03HX008 (ip) 100 % of control | dose: 18.75 mg/kg/injection, schedule: Q03HX008 (ip) 95 % of control | dose: 25.0 mg/kg/injection, schedule: Q01DX005 (iv) 100 % of control | dose: 33.0 mg/kg/injection, schedule: Q#B X027 (sc) 98 % of control | dose: 50.0 mg/kg/injection, schedule: Q01DX005 (iv) 100 % of control and 105 % of control | dose: 50.0 mg/kg/injection, schedule: Q01DX009 (sc) 98 % of control | dose: 67.0 mg/kg/injection, schedule: Q#B X027 (ip) 98 % of control | dose: 100.0 mg/kg/injection, schedule: Q01DX005 (iv) 101 % of control and 102 % of control and 105 % of control | dose: 100.0 mg/kg/injection, schedule: Q01DX009 (ip) 94 % of control and 100 % of control | dose: 100.0 mg/kg/injection, schedule: Q01DX009 (sc) 93 % of control and 100 % of control | dose: 100.0 mg/kg/injection, schedule: Q01DX010 (ip) 106 % of control | dose: 125.0 mg/kg/injection, schedule: Q01DX001 (ip) 97 % of control | dose: 133.0 mg/kg/injection, schedule: Q#B X027 (ip) 103 % of control | dose: 134.0 mg/kg/injection, schedule: Q#B X027 (sc) 107 % of control | dose: 200.0 mg/kg/injection, schedule: Q01DX001 (ip) 107 % of control | dose: 200.0 mg/kg/injection, schedule: Q01DX005 (ip) 101 % of control | dose: 200.0 mg/kg/injection, schedule: Q01DX005 (iv) 100 % of control and 101 % of control | dose: 200.0 mg/kg/injection, schedule: Q01DX009 (sc) 96 % of control | dose: 200.0 mg/kg/injection, schedule: Q01DX010 (ip) 107 % of control | dose: 200.0 mg/kg/injection, schedule: Q01DX Z (ip) 117 % of control | dose: 200.0 mg/kg/injection, schedule: Q02DX Z (ip) 114 % of control | dose: 200.0 mg/kg/injection, schedule: Q04DX003 (ip) 103 % of control | dose: 200.0 mg/kg/injection, schedule: Q08DX002 (ip) 103 % of control | dose: 200.0 mg/kg/injection, schedule: Q#A X030 (ip) 98 % of control | dose: 200.0 mg/kg/injection, schedule: Q#B X027 (ip) 122 % of control | dose: 200.0 mg/kg/injection, schedule: Q#B X027 (sc) 98 % of control | dose: 220.0 mg/kg/injection, schedule: Q01DX Z (ip) 111 % of control | dose: 222.0 mg/kg/injection, schedule: Q01DX015 (ip) 104 % of control | dose: 222.0 mg/kg/injection, schedule: Q01DX Z (ip) 105 % of control and 106 % of control and 119 % of control | dose: 225.0 mg/kg/injection, schedule: Q01DX Z (ip) 109 % of control | dose: 250.0 mg/kg/injection, schedule: Q01DX001 (ip) 94 % of control and 108 % of control | dose: 250.0 mg/kg/injection, schedule: Q01DX005 (iv) 97 % of control | dose: 250.0 mg/kg/injection, schedule: Q01DX009 (oral) 96 % of control and 98 % of control | dose: 250.0 mg/kg/injection, schedule: Q01DX009 (sc) 93 % of control | dose: 250.0 mg/kg/injection, schedule: Q01DX015 (iv) 106 % of control | dose: 250.0 mg/kg/injection, schedule: Q03HX024 (ip) 100 % of control | dose: 267.0 mg/kg/injection, schedule: Q#B X027 (sc) 97 % of control | dose: 270.0 mg/kg/injection, schedule: Q01DX015 (ip) 121 % of control | dose: 300.0 mg/kg/injection, schedule: Q01DX015 (im) 93 % of control | dose: 300.0 mg/kg/injection, schedule: Q01DX Z (ip) 112 % of control | dose: 300.0 mg/kg/injection, schedule: Q02DX Z (ip) 112 % of control | dose: 300.0 mg/kg/injection, schedule: Q#A X030 (ip) 98 % of control | dose: 333.0 mg/kg/injection, schedule: Q01DX015 (ip) 119 % of control | dose: 333.0 mg/kg/injection, schedule: Q01DX Z (ip) 120 % of control | dose: 335.0 mg/kg/injection, schedule: Q01DX Z (ip) 97 % of control and 116 % of control | dose: 400.0 mg/kg/injection, schedule: Q01DX001 (ip) 100 % of control | dose: 400.0 mg/kg/injection, schedule: Q01DX005 (iv) 103 % of control | dose: 400.0 mg/kg/injection, schedule: Q01DX009 (sc) 100 % of control | dose: 400.0 mg/kg/injection, schedule: Q01DX015 (ip) 111 % of control | dose: 400.0 mg/kg/injection, schedule: Q01DX015 (sc) 104 % of control | dose: 400.0 mg/kg/injection, schedule: Q04DX003 (ip) 114 % of control | dose: 400.0 mg/kg/injection, schedule: Q08DX002 (ip) 105 % of control | dose: 500.0 mg/kg/injection, schedule: Q01DX001 (ip) 111 % of control and 113 % of control | dose: 500.0 mg/kg/injection, schedule: Q01DX005 (iv) 100 % of control | dose: 500.0 mg/kg/injection, schedule: Q01DX009 (oral) 93 % of control and 105 % of control | dose: 500.0 mg/kg/injection, schedule: Q01DX009 (sc) 94 % of control and 100 % of control | dose: 500.0 mg/kg/injection, schedule: Q01DX015 (im) 104 % of control | dose: 500.0 mg/kg/injection, schedule: Q01DX015 (ip) 121 % of control | dose: 500.0 mg/kg/injection, schedule: Q01DX015 (oral) 97 % of control | dose: 500.0 mg/kg/injection, schedule: Q03HX024 (ip) 98 % of control | dose: 600.0 mg/kg/injection, schedule: Q01DX001 (ip) 105 % of control | dose: 600.0 mg/kg/injection, schedule: Q01DX005 (ip) 101 % of control | dose: 600.0 mg/kg/injection, schedule: Q01DX005 (iv) 103 % of control | dose: 600.0 mg/kg/injection, schedule: Q01DX015 (sc) 98 % of control | dose: 600.0 mg/kg/injection, schedule: Q02DX Z (ip) 123 % of control | dose: 600.0 mg/kg/injection, schedule: Q03DX005 (ip) 108 % of control | dose: 600.0 mg/kg/injection, schedule: Q04DX003 (ip) 120 % of control | dose: 600.0 mg/kg/injection, schedule: Q08DX002 (ip) 105 % of control | dose: 750.0 mg/kg/injection, schedule: Q01DX009 (oral) 100 % of control | dose: 750.0 mg/kg/injection, schedule: Q01DX009 (sc) 111 % of control | dose: 750.0 mg/kg/injection, schedule: Q01DX015 (im) 113 % of control | dose: 750.0 mg/kg/injection, schedule: Q01DX015 (ip) 113 % of control | dose: 750.0 mg/kg/injection, schedule: Q03HX024 (ip) 96 % of control | dose: 800.0 mg/kg/injection, schedule: Q01DX005 (ip) 107 % of control | dose: 800.0 mg/kg/injection, schedule: Q01DX Z (ip) 114 % of control | dose: 800.0 mg/kg/injection, schedule: Q03DX005 (ip) 107 % of control | dose: 800.0 mg/kg/injection, schedule: Q08DX002 (ip) 111 % of control | dose: 900.0 mg/kg/injection, schedule: Q01DX001 (ip) 105 % of control | dose: 1000.0 mg/kg/injection, schedule: Q01DX001 (ip) 106 % of control | dose: 1000.0 mg/kg/injection, schedule: Q01DX009 (oral) 102 % of control and 105 % of control | dose: 1000.0 mg/kg/injection, schedule: Q01DX015 (oral) 109 % of control | dose: 1000.0 mg/kg/injection, schedule: Q03HX024 (ip) 95 % of control | dose: 1100.0 mg/kg/injection, schedule: Q03DX005 (ip) 108 % of control | dose: 1500.0 mg/kg/injection, schedule: Q03HX024 (ip) 113 % of control
